As usually defined, the Kd is the equilibrium constant for the complex coming apart.

For the assay, the target named is BCL-XL (Homo sapiens (Human), UniProt Q07817). Kind of assay: BCL-XL surface plasmon resonance (SPR) binding experiment. As to conditions: 25° C., steady state affinity model (1:1 binding), BCL-XL fixed on NTA chip. As to the method:
Experimental Example 1. BCL-XL Surface Plasmon Resonance (SPR) Binding Experiment
Preparation of running buffer: The compositions of protein fixation buffer and running buffer A were the same, in which the concentration of NaH2PO4 was 10 mM, the concentration of Na2HPO4 was 40 mM, the concentration of NaCl was 150 mM, the content of Tween 20 was 0.03%, and the pH was adjusted to 7.4; in running buffer B, the concentration of NaH2OP4 was 10 mM, the concentration of Na2HOP4 was 40 mM, the concentration of NaCl was 150 mM, the content of Tween 20 was 0.03%, the content of DMSO was […], and the pH was adjusted to 7.4. After the running buffers were prepared, they were filtered with 0.22 μm filter membrane.
BCL-XL protein fixation: The protein fixation buffer was used to fix BCL-XL on NTA chip through His capture and amino coupling. The NTA chip surface was washed with 50 mM NaOH and 350 mM EDTA at a flow rate of 60.0 μL/min for 60 seconds, respectively; then activated with 10 mM NiCl2 for 1100 seconds, and then activated with a mixture of EDC (75.00 mg/mL) and NHS (11.50 mg/mL) with a volume ratio of 1:1 for 650 seconds at an activation flow rate of 10.0 μL/min; then BCL-XL (0.04 mg/mL) was injected at 4.0 μL/min for 850 seconds. After the BCL-XL injection was completed, a mixture of EDC (75.00 mg/mL) and NHS (11.50 mg/mL) with a volume ratio of 1:1 was used for cross-linking at a rate of 10.0 μL/min for 200 seconds, and finally 1 M ethanolamine (pH 8.5) was injected at a rate of 6.0 μL/min for 7 minutes to block the chip surface.
Compound dilution: The test compound was diluted with 100% DMSO to 100 times the required final concentration, after mixing well, 4.0 μL was pipetted and added to 396 μL of the running buffer A, centrifuged at 15000 rpm for 5 minutes, to obtain a 1× compound solution containing 1% DMSO for subsequent dilution. The compound to be tested was diluted gradiently by 2-fold dilution from 50 μM to 9 concentrations (the 2-fold dilution was carried out by adding 200 μL of the compound solution to 200 μL of the running buffer B, 10 concentration gradients comprised one 0 concentration (using the running buffer B instead), and the starting concentration was 50 μM). The diluted compound was transferred to a 96-well plate for sample injection.
After 8 injections of the running buffer B to complete equilibrium, the compound was injected from the lowest concentration to the highest concentration, and the association time and dissociation time were both 120 seconds. After each injection, the injection needle was washed with 50% DMSO. The solvent difference caused by DMSO was corrected with 0.50%, 0.75%, 1.00%, 1.25% and 1.50% DMSO.
The response value of the compound to bind to BCL-XL protein was analyzed after deducting the reference channel and 0 concentration, and the affinity Kd was fitted by Biacore T200 Evaluation Software using the steady state affinity model (1:1 binding model).
For orientation: Surface plasmon resonance follows binding to a sensor surface in real time, without labels.

Chain of BCL-XL (Q07817 whole entry): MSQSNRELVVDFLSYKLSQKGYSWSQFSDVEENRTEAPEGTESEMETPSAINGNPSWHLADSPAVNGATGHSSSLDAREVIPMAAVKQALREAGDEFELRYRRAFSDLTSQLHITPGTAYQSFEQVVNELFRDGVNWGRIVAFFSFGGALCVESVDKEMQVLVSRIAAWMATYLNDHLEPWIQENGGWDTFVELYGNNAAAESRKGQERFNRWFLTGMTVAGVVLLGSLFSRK

In turn, `CNc1nc(-c2cnc3ccccc3c2)nc2c1CCN(C(=O)c1cc(-c3ccc(C(C)(C)CNC(=O)OC(C)(C)C)cc3)n[nH]1)C2` [Compound 1A] returned a Kd of 0.1 to 1 µM.

`CNc1nc(-c2cnc3ccccc3c2)nc2c1CCN(C(=O)c1cc(-c3ccc(C4CCNCC4)cc3)[nH]n1)C2` [Compound 1B] displayed a Kd of 1 to 10 µM. The molecule `CC(C)(C)c1ccc(-c2cc(C(=O)N3CCc4cnc(-c5cnc6ccccc6c5)nc4C3)[nH]n2)cc1` [Compound 1C] returned a Kd of 0.1 to 1 µM. In the case of `CC(C)(C)c1ccc(-c2cc(C(=O)N3CCc4nc(Nc5nc6ccccc6s5)ccc4C3)[nH]n2)cc1` [Compound 1E] it was 10 to 100 µM.

In turn, `CNc1nc(-c2cnc3ccccc3c2)nc2c1CCN(C(=O)c1cc(-c3ccc(C4CC[N+](C)(C)CC4)cc3)[nH]n1)C2` [Compound 2B] returned a Kd of 1 to 10 µM.

Take `CNc1nc(-c2cnc3ccccc3c2)nc2c1CCN(C(=O)c1cc(-c3ccc(C(C)(C)CNC(C)=O)cc3)n[nH]1)C2` [Compound 3A]: the dissociation constant (Kd) is less than 0.1 µM. In the case of `CNc1nc(-c2cnc3ccccc3c2)nc2c1CCN(C(=O)c1cc(-c3ccc(C4CCN(C)CC4)cc3)[nH]n1)C2` [Compound 3B] it was 10 to 100 µM; in that of `CNC(=O)C(C)(C)c1ccc(-c2cc(C(=O)N3CCc4c(nc(-c5cnc6ccccc6c5)nc4NC)C3)[nH]n2)cc1` [Compound 4A], 0.1 to 1 µM; in that of `CNc1nc(-c2cnc3ccccc3c2)nc2c1CCN(C(=O)c1cc(-c3ccc(C(C)(C)CN4CCNCC4)cc3)n[nH]1)C2` [Compound 5A], 0.1 to 1 µM. `CNC(=O)c1ccc(-c2cc(C(=O)N3CCc4c(nc(-c5cnc6ccccc6c5)nc4NC)C3)n[nH]2)cc1` [Compound 6A] displayed a dissociation constant (Kd) of 1 to 10 µM. Regarding `CCc1ccc(-c2cc(C(=O)N3CCc4c(nc(-c5cnc6ccccc6c5)nc4NC)C3)[nH]n2)cc1` [Compound 7A], the Kd fell in the range of 10 to 100 µM.

Consider `CNc1nc(-c2cnc3ccccc3c2)nc2c1CCN(C(=O)c1ccc(COc3ccccc3)cc1)C2` [Compound A1], for which the equilibrium dissociation constant (Kd) was 0.1 to 1 µM. `CN(C)c1nc(-c2cnc3ccccc3c2)nc2c1CCN(C(=O)c1ccc(COc3ccccc3)cc1)C2` [Compound A2] displayed a dissociation constant Kd of 0.1 to 1 µM. In the case of `C[C@@H](CNc1nc(-c2cnc3ccccc3c2)nc2c1CCN(C(=O)c1ccc(COc3ccccc3)cc1)C2)c1ccccc1` [Compound A3] it was 1 to 10 µM; in that of `CCNC(=O)c1ccc(-c2nc3c(c(NC)n2)CCN(C(=O)c2ccc(COc4ccccc4)cc2)C3)cn1` [Compound A4], 1 to 10 µM; in that of `CNc1nc(-c2cc3ccccc3nc2O)nc2c1CCN(C(=O)c1ccc(COc3ccccc3)cc1)C2` [Compound A5], 10 to 100 µM. In the case of `CNc1nc(-c2n[nH]c3ccccc23)nc2c1CCN(C(=O)c1ccc(COc3ccccc3)cc1)C2` [Compound A6] it was 10 to 100 µM; in that of `CNc1nc(-c2ccc(Oc3ccccc3)nc2)nc2c1CCN(C(=O)c1ccc(COc3ccccc3)cc1)C2` [Compound A8], 1 to 10 µM.

The molecule `CNc1nc(-c2cc(C)[nH]n2)nc2c1CCN(C(=O)c1ccc(COc3ccccc3)cc1)C2` [Compound A9] had a Kd of 10 to 100 µM. Regarding `CNc1nc(-c2cnc3ccccc3c2)nc2c1CCN(C(=O)c1cccc(C(=O)O)c1)C2` [Compound A14], the Kd was 10 to 100 µM. In the case of `CNc1nc(-c2cnc3ccccc3c2)nc2c1CCN(C(=O)c1ccc(C(=O)O)cc1)C2` [Compound A15] it was 10 to 100 µM.

`CNc1nc(-c2cnc3ccccc3c2)nc2c1CCN(C(=O)c1ccc(C(=O)Nc3ccccc3)cc1)C2` [Compound A16] gave a dissociation constant (Kd) of 10 to 100 µM.

`CNc1nc(-c2cnc3ccccc3c2)nc2c1CN(c1nc(C(=O)O)cs1)CC2` [Compound A21] had a Kd of 10 to 100 µM. The molecule `CNc1nc(-c2cnc3ccccc3c2)nc2c1CN(c1cccc(C(=O)O)n1)CC2` [Compound A27] displayed a dissociation constant Kd of 10 to 100 µM. `COc1nc(-c2cnc3ccccc3c2)nc2c1CCN(C(=O)c1ccc(COc3ccccc3)cc1)C2` [Compound B1] yielded a dissociation constant (Kd) of 0.1 to 1 µM. In the case of `O=C(c1ccc(COc2ccccc2)cc1)N1CCc2c(O)nc(-c3cnc4ccccc4c3)nc2C1` [Compound B2] it was 0.1 to 1 µM.

The record behind these values is patent US20250333409A1, “Compound and use thereof in preparation of BCL-XL inhibitor” (Hitgen Inc., priority 2022, published 2025).
